Experimental data taken from patent US9510598B2, “Nitrogen-containing heterocyclic compounds for plant disease control” (BAYER CROPSCIENCE AG, priority 2012, dated 2016).
Like-named read-outs stand apart in the source and are kept apart here. Values belong to the compound of their own block, whether it stands above or below them.

Format: physicochemical
[1] = method [a]: HPLC/LC-MS on reversed phase at pH 2.7, 0.1% formic acid in water / acetonitrile, gradient 10% to 95% acetonitrile
[2] = HPLC on reversed phase columns, method [a]: pH 2.7, 0.1% formic acid in water and acetonitrile, linear gradient 10% to 95% acetonitrile
[3] = HPLC on reversed phase columns, method [a]: pH 2.7, 0.1% formic acid in water / acetonitrile, linear gradient 10% to 95% acetonitrile
[4] = method [a]: HPLC/LC-MS on reversed phase at pH 2.7, 0.1% formic acid in water / acetonitrile, linear gradient 10% to 95% acetonitrile

Structure (SMILES): CC(C)NC(=O)C12ON=C(c3ccc4ncc(Br)cc4c3)C1C2C (racemic) [compound 403]
log P [1]: 3.11[a]

Structure (SMILES): CC1(C(=O)NCc2ccc(Cl)cc2)CC(c2ccc3ncc(Br)cc3c2)=NO1 (centres unmarked) [compound 94]
log P [4]: 3.61^[a]

Structure (SMILES): CC1(C(=O)NCC2CCCOC2c2ccccc2)CC(c2ccc3ncc(Br)cc3c2)=NO1 (centres unmarked) [compound 113]
log P [4]: 3.5^[a]

Structure (SMILES): CN(CC(NC(=O)C1(C)CC(c2ccc3ncc(Br)cc3c2)=NO1)C1CC1)c1ccccc1 (centres unmarked) [compound 362]
log P [1]: 4.19[a]

Structure (SMILES): CC(C)NC(=O)C1(C)CC(c2ccc3ncc(C#N)cc3c2)=NO1 (centres unmarked) [compound 79]
log P [4]: 2.12^[a]

Structure (SMILES): CCn1cc(CNC(=O)C2(C)CC(c3ccc4nc(C#N)c(I)cc4c3)=NO2)c(C)n1 (racemic) [compound 431]
log P [1]: 2.57[a]

Structure (SMILES): CC(C)NC(=O)C12CCCC1C(c1ccc3ncc(Br)cc3c1)=NO2 (centres unmarked) [compound 255]
log P [3]: 3.19^[a]

Structure (SMILES): C#Cc1cnc2ccc(C3=NOC(C)(C(=O)NC(C)c4ccc(Cl)cc4)C3)cc2c1 (centres unmarked) [compound 346]
log P [3]: 3.44[a]

Structure (SMILES): CCn1cnnc1CNC(=O)C1(C)CC(c2ccc3ncc(Br)cc3c2)=NO1 (centres unmarked) [compound 154]
log P [4]: 1.72^[a]

Structure (SMILES): Cc1ccc(CNC(=O)C2(C)CC(c3ccc4ncc(Br)cc4c3)=NO2)o1 (centres unmarked) [compound 90]
log P [4]: 3.15^[a]

Structure (SMILES): C#Cc1cnc2ccc(C3=NOC(C)(C(=O)NCCc4ccc(Cl)cc4Cl)C3)cc2c1 (centres unmarked) [compound 212]
log P [4]: 3.7^[a]

Structure (SMILES): C#Cc1cnc2ccc(C3=NOC(C)(C(=O)NCc4cccc(Cl)c4Cl)C3)cc2c1 (centres unmarked) [compound 172]
log P [4]: 3.58^[a]

Structure (SMILES): CCn1cc(CNC(=O)C2(C)ON=C(c3ccc4ncc(Br)cc4c3)C2OC)c(C)n1 (mixture of isomers) [compound 433]
log P [1]: 2.44[a]

Structure (SMILES): CCn1cc(CNC(=O)C2(C)ON=C(c3ccc4ncc(Br)cc4c3)C2C)c(C)n1 (racemic) [compound 385]
log P [1]: 2.55[a]

Structure (SMILES): O=Cc1ccc2ncc(Br)cc2c1 [3-bromoquinoline-6-carbaldehyde]
chromatographic logP (reversed phase HPLC column, HPLC reversed phase, pH 2.7, 0.1% formic acid in water / acetonitrile, linear gradient 10% to 95% acetonitrile, calibration with alkan-2-ones, read-out: log P (HCOOH)): 2.08

Structure (SMILES): C#Cc1cnc2ccc(C3=NOC(C)(C(=O)NC(C)CC(C)C)C3)cc2c1 (centres unmarked) [compound 316]
log P [3]: 3.37[a]

Structure (SMILES): CCCCCCC(C)NC(=O)C1(C)CC(c2ccc3ncc(Br)cc3c2)=NO1 (racemic) [compound 370]
log P [1]: 4.73[a]

Structure (SMILES): C#Cc1cc2cc(C3=NOC(C)(C(=O)NC(C)C)C3)ccc2nc1C#N (centres unmarked) [compound 404]
log P [1]: 2.77[a]

Structure (SMILES): CC(C)NC(=O)C1(C)CC(c2ccc3nc(Cl)c(I)cc3c2)=NO1 (centres unmarked) [compound 486]
log P [1]: 3.50[a]

Structure (SMILES): O=C(NC1CC1)C1(C2CC2)CC(c2ccc3ncc(Br)cc3c2)=NO1 (centres unmarked) [compound 269]
log P [3]: 2.88[a]

Structure (SMILES): CC1(C(=O)NCC2CCOc3ccccc32)CC(c2ccc3ncc(Br)cc3c2)=NO1 (centres unmarked) [compound 112]
log P [4]: 3.48^[a]

Structure (SMILES): Cc1ncsc1CNC(=O)C1(C)CC(c2ccc3ncc(Br)cc3c2)=NO1 (centres unmarked) [compound 487]
log P [1]: 2.28[a]

Structure (SMILES): CC1(C(=O)NCc2ccc3[nH]ccc3c2)CC(c2ccc3ncc(Br)cc3c2)=NO1 (centres unmarked) [compound 116]
log P [4]: 2.92^[a]

Structure (SMILES): CC1(C(=O)NC(c2cccc(Cl)c2)C(F)(F)F)CC(c2ccc3ncc(Br)cc3c2)=NO1 (centres unmarked) [compound 360]
log P [3]: 4.39[a]

Structure (SMILES): CC(C)(C)ONC(=O)C1(C)CC(c2ccc3ncc(Br)cc3c2)=NO1 (racemic) [compound 373]
log P [1]: 2.66[a]

Results, then the compound that gave them:

log P [2]: 2.60[a]
Structure (SMILES): CC1(C(=O)NCc2cnn(CC(F)(F)F)c2)CC(c2ccc3ncc(Br)cc3c2)=NO1 (centres unmarked) [compound 777]

log P [3]: 2.96[a]
Structure (SMILES): CC1(C)OCC(CNC(=O)C2(C(F)F)CC(c3ccc4ncc(Br)cc4c3)=NO2)O1 (centres unmarked) [compound 622]

log P [2]: 2.45[a]
Structure (SMILES): CCn1cc(NC(=O)C2(C)CC(c3ccc4ncc(Br)cc4c3)=NO2)cn1 (centres unmarked) [compound 694]

log P [2]: 2.69[a]
Structure (SMILES): CCn1cc(CNC(=O)C2(C)CC(c3ccc4ncc(Br)c(Cl)c4c3)=NO2)c(C)n1 (centres unmarked) [compound 735]

log P [2]: 4.46[a]
Structure (SMILES): CC(C)(C)Oc1ncccc1CNC(=O)C1(C)CC(c2ccc3ncc(Br)cc3c2)=NO1 (racemic) [compound 819]

log P [2]: 1.64[a]
Structure (SMILES): C#Cc1cnc2ccc(C3=NOC(C)(C(=O)NCc4cccnc4O)C3)cc2c1 (centres unmarked) [compound 805]

log P [3]: 3.11[a]
Structure (SMILES): C#CC1(C(=O)NC2CCC2)CC(c2ccc3ncc(Br)cc3c2)=NO1 (centres unmarked) [compound 625]

log P [3]: 2.63[a]
Structure (SMILES): CCn1cc(CNC(=O)C2(C)CC(c3ccc4ncc(Br)cc4c3)=NO2)c(OC)n1 (centres unmarked) [compound 639]

log P [2]: 2.34[a]
Structure (SMILES): C#Cc1cnc2ccc(C3=NOC(C)(C(=O)NCc4cnn(CC(F)(F)F)c4)C3)cc2c1 (centres unmarked) [compound 772]

log P [3]: 2.23[a]
Structure (SMILES): C#Cc1cnc2ccc(C3=NOC(C)(C(=O)NCc4nc(C)cc(C)n4)C3)cc2c1 (centres unmarked) [compound 643]

log P [2]: 2.10[a]
Structure (SMILES): C#Cc1cnc2ccc(C3=NOC(C)(C(=O)NCc4cncc(C#N)c4)C3)cc2c1 (centres unmarked) [compound 779]

log P [2]: 2.27[a]
Structure (SMILES): COC1(C(=O)NCCC2CCOC2)CC(c2ccc3ncc(Br)cc3c2)=NO1 (racemic) [compound 823]

log P [3]: 1.27[a]
Structure (SMILES): C#Cc1cnc2ccc(C3=NOC(C)(C(=O)NCc4cnccc4OC)C3)cc2c1 (centres unmarked) [compound 672]

log P [3]: 2.35[a]
Structure (SMILES): C#Cc1cnc2ccc(C3=NOC(C)(C(=O)NCc4cn(CC)nc4OC)C3)cc2c1 (centres unmarked) [compound 637]

log P [2]: 1.46[a]
Structure (SMILES): Cc1cnccc1CNC(=O)C1(C)CC(c2ccc3ncc(Br)cc3c2)=NO1 (centres unmarked) [compound 695]

log P [3]: 2.62[a]
Structure (SMILES): C#Cc1cnc2c(C)cc(C3=NOC(C)(C(=O)NCc4cn(CC)nc4C)C3)cc2c1 (centres unmarked) [compound 581]

log P [2]: 2.96[a]
Structure (SMILES): CC1(C(=O)NCc2ccnc(C(F)(F)F)c2)CC(c2ccc3ncc(Br)cc3c2)=NO1 (centres unmarked) [compound 795]

log P [3]: 2.52[a]
Structure (SMILES): Cc1nn(C2CC2)cc1CNC(=O)C1(C)CC(c2ccc3ncc(Br)cc3c2)=NO1 (centres unmarked) [compound 669]

log P [3]: 2.46[a]
Structure (SMILES): C#Cc1cnc2c(C)cc(C3=NOC(OC)(C(=O)NCc4cnc(C)cn4)C3)cc2c1 (centres unmarked) [compound 611]

log P [3]: 2.78[a]
Structure (SMILES): CCn1cc(CNC(=O)C2(C)CC(c3ccc4ncc(Br)cc4c3)=NO2)c(SC)n1 (centres unmarked) [compound 638]

log P [2]: 1.29[a]
Structure (SMILES): C#Cc1cnc2ccc(C3=NOC(C)(C(=O)NCc4cnccc4C)C3)cc2c1 (centres unmarked) [compound 682]

log P [2]: 1.43[a]
Structure (SMILES): C#Cc1cnc2ccc(C3=NOC(C)(C(=O)NCc4cccc(C)n4)C3)cc2c1 (centres unmarked) [compound 691]

log P [2]: 2.86[a]
Structure (SMILES): CC(C)NC(=O)C1(C#N)CC(c2ccc3ncc(Br)cc3c2)=NO1 (centres unmarked) [compound 737]

log P [3]: 2.56[a]
Structure (SMILES): CC1(C(=O)NCC(F)F)CC(c2ccc3ncc(Br)cc3c2)=NO1 (centres unmarked) [compound 653]

log P [3]: 1.56[a]
Structure (SMILES): COc1cnccc1CNC(=O)C1(C)CC(c2ccc3ncc(Br)cc3c2)=NO1 (centres unmarked) [compound 673]

log P [3]: 2.86[a]
Structure (SMILES): CCn1cc(CNC(=O)C2(C)CC(c3ccc4ncc(Br)cc4c3)=NO2)c(Br)n1 (centres unmarked) [compound 636]

log P [3]: 2.92[a]
Structure (SMILES): Cc1nn(C2CCC2)cc1CNC(=O)C1(C)CC(c2ccc3ncc(Br)cc3c2)=NO1 (centres unmarked) [compound 633]

log P [2]: 1.36[a]
Structure (SMILES): C#Cc1cnc2ccc(C3=NOC(C)(C(=O)NCc4ccnc(N(C)C)c4)C3)cc2c1 (centres unmarked) [compound 800]

log P [2]: 2.23[a]
Structure (SMILES): C#Cc1cnc2ccc(C3=NOC(C)(C(=O)NCc4ccnc(F)c4)C3)cc2c1 (centres unmarked) [compound 802]

log P [3]: 3.33[a]
Structure (SMILES): COC1(C(=O)NC2CCC2)CC(c2cc(Cl)c3ncc(Br)cc3c2)=NO1 (centres unmarked) [compound 576]

log P [2]: 2.90[a]
Structure (SMILES): C=C(C)CNC(=O)C1(C)CC(c2ccc3ncc(Br)cc3c2)=NO1 (centres unmarked) [compound 715]
